What follows are molecules tested against PDCD1 Construct (signal peptide + 10 amino acids of Programmed Cell Death Receptor 1 fused to HaloTag-HiBit) (Homo sapiens, UniProt P61619) (assay: HiBit assay, secretion of SP-HaloTag-HiBit fusion protein, PDCD1 construct). Conditions: T-REx-293 cells, doxycycline-induced, Nano-Glo HiBiT Extracellular Detection.
Format: cell-based

Sequence of PDCD1 Construct (signal peptide + 10 amino acids of Programmed Cell Death Receptor 1 fused to HaloTag-HiBit) (P61619 whole entry, the tested form may be a part): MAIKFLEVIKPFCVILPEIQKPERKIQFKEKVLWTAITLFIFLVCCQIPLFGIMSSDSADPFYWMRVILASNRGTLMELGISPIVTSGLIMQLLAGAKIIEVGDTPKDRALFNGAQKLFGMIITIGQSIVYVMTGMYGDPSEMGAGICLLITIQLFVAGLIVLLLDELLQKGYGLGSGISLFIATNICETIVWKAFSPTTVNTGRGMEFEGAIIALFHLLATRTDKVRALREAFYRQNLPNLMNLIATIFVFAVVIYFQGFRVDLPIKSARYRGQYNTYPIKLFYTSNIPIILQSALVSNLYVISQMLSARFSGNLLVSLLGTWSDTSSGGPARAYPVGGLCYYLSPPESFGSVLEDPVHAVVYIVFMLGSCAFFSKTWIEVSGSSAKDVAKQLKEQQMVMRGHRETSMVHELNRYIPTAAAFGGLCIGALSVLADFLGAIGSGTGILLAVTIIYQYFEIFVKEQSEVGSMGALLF

`CC(C)(C)C1CNC(NC(=O)c2cccn2Cc2ccncc2)=N1` (centres unmarked) [Compound 43] and `CC(C)(C)c1nsc(NC(=O)c2cccn2Cc2ccncc2)n1` [Compound 50] cannot be ordered by IC50: < 5 µM for the first, < 5 µM for the second.

`c1ccc(N2CCC[C@@H]2c2csc(Nc3ncccc3OCc3ccncc3)n2)cc1` [Compound 8, (R)-4-(1-phenylpyrrolidin-2-yl)-N-(3-(pyridin-4-ylmethoxy)pyridin-2-yl)thiazol-2-amine] and `CC(C)OC(C)(C)c1csc(Nc2nccc3ccn(Cc4ccncc4)c23)n1` [Compound 25, 4-(2-isopropoxypropan-2-yl)-N-(1-(pyridin-4-ylmethyl)-1H-pyrrolo[2,3-c]pyridin-7-yl)thiazol-2-amine] fall in the same range of IC50: 5 to 10 µM for the first, 5 to 10 µM for the second.

Compared with `Cc1cccc(Nc2nc(-c3ccc(-c4cccnc4)cc3)cs2)n1` [Compound 38], `O=C(Nc1nc(-c2ccccc2)ns1)c1cccn1Cc1ccncc1` [Compound 37] is lower in IC50: > 30 µM for the first, < 5 µM for the second.

`CC(C)OC(C)(C)c1csc(NC(=O)c2ccnn2CCc2ccncc2)n1` [Compound 24, N-(4-(2-isopropoxypropan-2-yl)thiazol-2-yl)-1-(2-(pyridin-4-yl)ethyl)-1H-pyrazole-5-carboxamide] and `CC(C)OC(C)(C)c1csc(NC(=O)c2nccn2CCc2ccncc2)n1` [Compound 44] cannot be ordered by IC50: > 30 µM for the first, > 30 µM for the second.

First: O=C(Nc1nc(/C=C/c2ccccc2)ns1)c1cc(F)cn1Cc1ccncc1 [Compound 49, (E)-4-fluoro-1-(pyridin-4-ylmethyl)-N-(3-styryl-1,2,4-thiadiazol-5-yl)-1H-pyrrole-2-carboxamide]
Second: CN1CCN(c2nsc(NC(=O)c3cc(F)cn3Cc3ccncc3)n2)CC1 [Compound 48, 4-fluoro-N-(3-(4-methylpiperazin-1-yl)-1,2,4-thiadiazol-5-yl)-1-(pyridin-4-ylmethyl)-1H-pyrrole-2-carboxamide]
The IC50 of the first is lower: < 5 µM for the first, > 30 µM for the second. The first is the more potent here.

The molecules below were run against PRP Construct (signal peptide + 10 amino acids of Prion protein fused to HaloTag-HiBit) (Homo sapiens, UniProt P61619) (assay: cell-based). Conditions: not given.
Sequence of PRP Construct (signal peptide + 10 amino acids of Prion protein fused to HaloTag-HiBit) (P61619 whole entry, looked up, the tested form may be a part): as the sequence (P61619 whole entry, the tested form may be a part) above

`O=C(Nc1ccc(C(=O)c2ccccc2)cc1)Nc1nc([C@H]2CCCN2c2ccccc2)cs1` [Compound 23, (R)-1-(4-benzoylphenyl)-3-(4-(1-phenylpyrrolidin-2-yl)thiazol-2-yl)urea] and `O=C(c1ccccc1)c1ccc(Nc2nc([C@H]3CCCN3c3ccccc3)cs2)cc1` [Compound 13, (R)-phenyl(4-((4-(1-phenylpyrrolidin-2-yl)thiazol-2-yl)amino)phenyl)methanone] cannot be ordered by IC50: > 30 µM for the first, > 30 µM for the second.

`CC(C)OC(C)(C)c1csc(NC(=O)OCCc2ccncc2)n1` [Compound 21, 2-(pyridin-4-yl)ethyl (4-(2-isopropoxypropan-2-yl)thiazol-2-yl)carbamate] and `CC(C)OC(C)(C)c1csc(NC(=O)N(C)CCc2ccncc2)n1` [Compound 20, 3-(4-(2-isopropoxypropan-2-yl)thiazol-2-yl)-1-methyl-1-(2-(pyridin-4-yl)ethyl)urea] cannot be ordered by IC50: > 30 µM for the first, > 30 µM for the second.

`CC(C)OC(C)(C)c1csc(Nc2ccc(C(=O)c3ccccc3)cc2)n1` [Compound 22, (4-((4-(2-isopropoxypropan-2-yl)thiazol-2-yl)amino)phenyl)(phenyl)methanone] and `CC(C)OC(C)(C)c1csc(NC(=O)Nc2ccccc2Oc2ccccc2)n1` [Compound 18, 1-(4-(2-isopropoxypropan-2-yl)thiazol-2-yl)-3-(2-phenoxyphenyl)urea] cannot be ordered by IC50: > 30 µM for the first, > 30 µM for the second.

`CC(C)(C)C1CNC(NC(=O)c2cccn2Cc2ccncc2)=N1` (centres unmarked) [Compound 43] and `O=C(Nc1nc(-c2ccccc2)ns1)c1cccn1Cc1ccncc1` [Compound 37] fall in the same range of IC50: 5 to 10 µM for the first, 5 to 10 µM for the second.

`O=C(Nc1nc([C@H]2CCCN2c2ccccc2)cs1)OCCc1ccncc1` [Compound 1, 2-(pyridin-4-yl)ethyl (R)-(4-(1-phenylpyrrolidin-2-yl)thiazol-2-yl)carbamate] and `CN(CCc1ccncc1)C(=O)Nc1nc([C@H]2CCCN2c2ccccc2)cs1` [Compound 6, (R)-1-methyl-3-(4-(1-phenylpyrrolidin-2-yl)thiazol-2-yl)-1-(2-(pyridin-4-yl)ethyl)urea] cannot be ordered by IC50: > 30 µM for the first, > 30 µM for the second.

First: c1ccc(N2CCC[C@@H]2c2csc(Nc3ncccc3OCc3ccncc3)n2)cc1 [Compound 8, (R)-4-(1-phenylpyrrolidin-2-yl)-N-(3-(pyridin-4-ylmethoxy)pyridin-2-yl)thiazol-2-amine]
Second: C[C@H](OCc1ccncc1)C(=O)Nc1nc([C@H]2CCCN2c2ccccc2)cs1 [Compound 5, (S)—N-(4-((R)-1-phenylpyrrolidin-2-yl)thiazol-2-yl)-2-(pyridin-4-ylmethoxy)propanamide]
The IC50 of the first is lower: < 5 µM for the first, 5 to 10 µM for the second.

Compared with `CC(C)OC(C)(C)c1csc(Nc2nccc3ccn(Cc4ccncc4)c23)n1` [Compound 25, 4-(2-isopropoxypropan-2-yl)-N-(1-(pyridin-4-ylmethyl)-1H-pyrrolo[2,3-c]pyridin-7-yl)thiazol-2-amine], `CC(C)OC(C)(C)c1csc(NC(=O)NCc2ccncc2)n1` [Compound 17, 1-(4-(2-isopropoxypropan-2-yl)thiazol-2-yl)-3-(pyridin-4-ylmethyl)urea] is higher in IC50: 10 to 30 µM for the first, > 30 µM for the second.

First: CC(C)(C)c1csc(Nc2ncccc2CCc2ccncc2)n1 [Compound 39]
Second: CC(C)OC(C)(C)c1csc(NC(=O)[C@H](C)OCc2ccncc2)n1 [Compound 15, (S)—N-(4-(2-isopropoxypropan-2-yl)thiazol-2-yl)-2-(pyridin-4-ylmethoxy)propanamide]
The IC50 of the first is lower: 10 to 30 µM for the first, > 30 µM for the second. The first is the more potent here.

`Cc1ccc(Nc2nc(C3CCCN3Cc3cnc[nH]3)cs2)nc1` (centres unmarked) [Compound 45] and `Cc1ccc(Nc2nc(C3CCCN3C)cs2)nc1` (centres unmarked) [Compound 46] cannot be ordered by IC50: > 30 µM for the first, > 30 µM for the second.

Compared with `C[C@@H](OCc1ccncc1)C(=O)Nc1nc([C@H]2CCCN2c2ccccc2)cs1` [Compound 4, (R)—N-(4-((R)-1-phenylpyrrolidin-2-yl)thiazol-2-yl)-2-(pyridin-4-ylmethoxy)propanamide], `O=C(NCc1ccncc1)Nc1nc([C@H]2CCCN2c2ccccc2)cs1` [Compound 11, (R)-1-(4-(1-phenylpyrrolidin-2-yl)thiazol-2-yl)-3-(pyridin-4-ylmethyl)urea] is higher in IC50: 10 to 30 µM for the first, > 30 µM for the second. The first is the more potent here.

`CC(C)OC(C)(C)c1csc(NC(=O)[C@@H](C)OCc2ccncc2)n1` [Compound 14, (R)—N-(4-(2-isopropoxypropan-2-yl)thiazol-2-yl)-2-(pyridin-4-ylmethoxy)propanamide] and `CC(C)OC(C)(C)c1csc(NC(=O)N(C)Cc2ccncc2)n1` [Compound 19, 3-(4-(2-isopropoxypropan-2-yl)thiazol-2-yl)-1-methyl-1-(pyridin-4-ylmethyl)urea] cannot be ordered by IC50: > 30 µM for the first, > 30 µM for the second.

First: CC(CNc1ccncc1)C(=O)Nc1nc([C@H]2CCCN2c2ccccc2)cs1 (stereo partly drawn) [Compound 7, 2-methyl-N-(4-((R)-1-phenylpyrrolidin-2-yl)thiazol-2-yl)-3-(pyridin-4-ylamino)propanamide]
Second: O=C(CCOc1ccncc1)Nc1nc([C@H]2CCCN2c2ccccc2)cs1 [Compound 2, (R)—N-(4-(1-phenylpyrrolidin-2-yl)thiazol-2-yl)-3-(pyridin-4-yloxy)propanamide]
The IC50 of the first is lower: 10 to 30 µM for the first, > 30 µM for the second.

`CN1CCCC1c1csc(Nc2ncccn2)n1` (centres unmarked) [Compound 47] was tested, and the IC50 was > 30 µM.
